Values belong to the molecule of their own block, whether it stands above or below them.
Legend:
[1] = molecular target: Glycogen synthase kinase-3 beta (Homo sapiens, UniProt P49841); experiment: Inhibition of GSK-3beta (unknown origin)
[2] = Biodistribution in brain of iv dosed KM mouse assessed as radioactivity after 60 mins by imaging analysis; assay type: ADME, organism-based; details: in vivo, 1 h
[3] = Stability in iv dosed KM mouse assessed as radioactivity of parent compound remaining in blood after 1 hrs by radio-HPLC analysis; assay type: ADME, organism-based; details: in vivo
[4] = Biodistribution in lung of iv dosed KM mouse assessed as radioactivity after 10 mins by imaging analysis; assay type: ADME, organism-based; details: in vivo
[5] = Biodistribution in heart of iv dosed KM mouse assessed as radioactivity after 30 mins by imaging analysis; assay type: ADME, organism-based; details: in vivo, 0.5 h
[6] = Biodistribution in small intestine of iv dosed KM mouse assessed as radioactivity after 2 mins by imaging analysis; assay type: ADME, organism-based; details: in vivo
[7] = Biodistribution in kidney of iv dosed KM mouse assessed as radioactivity after 30 mins by imaging analysis; assay type: ADME, organism-based; details: in vivo, 0.5 h
[8] = Biodistribution in brain of iv dosed KM mouse assessed as radioactivity after 30 mins by imaging analysis; assay type: ADME, organism-based; details: in vivo, 0.5 h
[9] = Biodistribution in blood of iv dosed KM mouse assessed as radioactivity after 30 mins by imaging analysis; assay type: ADME, organism-based; details: in vivo, 0.5 h
[10] = Biodistribution in pancreas of iv dosed KM mouse assessed as radioactivity after 2 mins by imaging analysis; assay type: ADME, organism-based; details: in vivo
[11] = Biodistribution in liver of iv dosed KM mouse assessed as radioactivity after 30 mins by imaging analysis; assay type: ADME, organism-based; details: in vivo, 0.5 h
[12] = Biodistribution in blood of iv dosed KM mouse assessed as radioactivity after 2 mins by imaging analysis; assay type: ADME, organism-based; details: in vivo
[13] = Biodistribution in lung of iv dosed KM mouse assessed as radioactivity after 30 mins by imaging analysis; assay type: ADME, organism-based; details: in vivo, 0.5 h
[14] = Biodistribution in liver of iv dosed KM mouse assessed as radioactivity after 60 mins by imaging analysis; assay type: ADME, organism-based; details: in vivo, 1 h
[15] = Biodistribution in heart of iv dosed KM mouse assessed as radioactivity after 60 mins by imaging analysis; assay type: ADME, organism-based; details: in vivo, 1 h
[16] = Biodistribution in liver of iv dosed KM mouse assessed as radioactivity after 10 mins by imaging analysis; assay type: ADME, organism-based; details: in vivo
[17] = Biodistribution in brain of iv dosed KM mouse assessed as radioactivity after 2 mins by imaging analysis; assay type: ADME, organism-based; details: in vivo
[18] = Lipophilicity, logD of compound; assay type: physicochemical; details: octanol/water
[19] = Biodistribution in bone of iv dosed KM mouse assessed as radioactivity after 30 mins by imaging analysis; assay type: ADME, organism-based, Bone element; details: in vivo, 0.5 h
[20] = Biodistribution in kidney of iv dosed KM mouse assessed as radioactivity after 10 mins by imaging analysis; assay type: ADME, organism-based; details: in vivo
[21] = Biodistribution in small intestine of iv dosed KM mouse assessed as radioactivity after 30 mins by imaging analysis; assay type: ADME, organism-based; details: in vivo, 0.5 h
[22] = Biodistribution in stomach of iv dosed KM mouse assessed as radioactivity after 10 mins by imaging analysis; assay type: ADME, organism-based; details: in vivo
[23] = Biodistribution in small intestine of iv dosed KM mouse assessed as radioactivity after 10 mins by imaging analysis; assay type: ADME, organism-based; details: in vivo
[24] = Biodistribution in lung of iv dosed KM mouse assessed as radioactivity after 2 mins by imaging analysis; assay type: ADME, organism-based; details: in vivo
[25] = Biodistribution in bone of iv dosed KM mouse assessed as radioactivity after 2 mins by imaging analysis; assay type: ADME, organism-based, Bone element; details: in vivo
[26] = Biodistribution in liver of iv dosed KM mouse assessed as radioactivity after 2 mins by imaging analysis; assay type: ADME, organism-based; details: in vivo
[27] = Biodistribution in kidney of iv dosed KM mouse assessed as radioactivity after 60 mins by imaging analysis; assay type: ADME, organism-based; details: in vivo, 1 h
[28] = Biodistribution in spleen of iv dosed KM mouse assessed as radioactivity after 60 mins by imaging analysis; assay type: ADME, organism-based; details: in vivo, 1 h
[29] = Biodistribution in spleen of iv dosed KM mouse assessed as radioactivity after 30 mins by imaging analysis; assay type: ADME, organism-based; details: in vivo, 0.5 h
[30] = Biodistribution in heart of iv dosed KM mouse assessed as radioactivity after 10 mins by imaging analysis; assay type: ADME, organism-based; details: in vivo
[31] = Biodistribution in pancreas of iv dosed KM mouse assessed as radioactivity after 10 mins by imaging analysis; assay type: ADME, organism-based; details: in vivo
[32] = Stability in mouse plasma assessed as parent compound remaining after 4 hrs by radio-HPLC analysis; assay type: ADME, cell-free; details: read-out: Stability
[33] = Biodistribution in brain of iv dosed KM mouse assessed as radioactivity after 10 mins by imaging analysis; assay type: ADME, organism-based; details: in vivo
[34] = Biodistribution in spleen of iv dosed KM mouse assessed as radioactivity after 2 mins by imaging analysis; assay type: ADME, organism-based; details: in vivo
[35] = Biodistribution in pancreas of iv dosed KM mouse assessed as radioactivity after 60 mins by imaging analysis; assay type: ADME, organism-based; details: in vivo, 1 h
[36] = Biodistribution in bone of iv dosed KM mouse assessed as radioactivity after 60 mins by imaging analysis; assay type: ADME, organism-based, Bone element; details: in vivo, 1 h
[37] = Biodistribution in muscle of iv dosed KM mouse assessed as radioactivity after 10 mins by imaging analysis; assay type: ADME, organism-based, Muscle tissue; details: in vivo
[38] = Biodistribution in stomach of iv dosed KM mouse assessed as radioactivity after 2 mins by imaging analysis; assay type: ADME, organism-based; details: in vivo
[39] = Biodistribution in blood of iv dosed KM mouse assessed as radioactivity after 60 mins by imaging analysis; assay type: ADME, organism-based; details: in vivo, 1 h
[40] = Biodistribution in small intestine of iv dosed KM mouse assessed as radioactivity after 60 mins by imaging analysis; assay type: ADME, organism-based; details: in vivo, 1 h
[41] = Biodistribution in pancreas of iv dosed KM mouse assessed as radioactivity after 30 mins by imaging analysis; assay type: ADME, organism-based; details: in vivo, 0.5 h
[42] = Biodistribution in muscle of iv dosed KM mouse assessed as radioactivity after 30 mins by imaging analysis; assay type: ADME, organism-based, Muscle tissue; details: in vivo, 0.5 h
[43] = Biodistribution in spleen of iv dosed KM mouse assessed as radioactivity after 10 mins by imaging analysis; assay type: ADME, organism-based; details: in vivo
[44] = Biodistribution in blood of iv dosed KM mouse assessed as radioactivity after 10 mins by imaging analysis; assay type: ADME, organism-based; details: in vivo
[45] = Biodistribution in muscle of iv dosed KM mouse assessed as radioactivity after 2 mins by imaging analysis; assay type: ADME, organism-based, Muscle tissue; details: in vivo
[46] = Biodistribution in bone of iv dosed KM mouse assessed as radioactivity after 10 mins by imaging analysis; assay type: ADME, organism-based, Bone element; details: in vivo
[47] = Biodistribution in muscle of iv dosed KM mouse assessed as radioactivity after 60 mins by imaging analysis; assay type: ADME, organism-based, Muscle tissue; details: in vivo, 1 h
[48] = Biodistribution in lung of iv dosed KM mouse assessed as radioactivity after 60 mins by imaging analysis; assay type: ADME, organism-based; details: in vivo, 1 h
[49] = Biodistribution in stomach of iv dosed KM mouse assessed as radioactivity after 30 mins by imaging analysis; assay type: ADME, organism-based; details: in vivo, 0.5 h
[50] = Biodistribution in kidney of iv dosed KM mouse assessed as radioactivity after 2 mins by imaging analysis; assay type: ADME, organism-based; details: in vivo
[51] = Biodistribution in stomach of iv dosed KM mouse assessed as radioactivity after 60 mins by imaging analysis; assay type: ADME, organism-based; details: in vivo, 1 h
[52] = Biodistribution in heart of iv dosed KM mouse assessed as radioactivity after 2 mins by imaging analysis; assay type: ADME, organism-based; details: in vivo

Chain of Glycogen synthase kinase-3 beta (P49841 whole entry): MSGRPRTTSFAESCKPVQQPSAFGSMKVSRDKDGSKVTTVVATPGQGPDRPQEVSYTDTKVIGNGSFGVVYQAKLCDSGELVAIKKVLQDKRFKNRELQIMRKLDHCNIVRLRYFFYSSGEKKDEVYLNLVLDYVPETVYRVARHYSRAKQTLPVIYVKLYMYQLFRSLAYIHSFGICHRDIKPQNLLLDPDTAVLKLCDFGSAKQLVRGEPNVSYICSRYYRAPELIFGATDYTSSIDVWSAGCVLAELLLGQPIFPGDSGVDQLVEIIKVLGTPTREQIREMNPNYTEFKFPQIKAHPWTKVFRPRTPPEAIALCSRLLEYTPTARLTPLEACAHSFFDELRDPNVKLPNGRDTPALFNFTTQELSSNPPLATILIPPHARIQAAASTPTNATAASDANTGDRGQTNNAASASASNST

IC50 [1]: 152 nM
SMILES: CN(C)C(=O)c1sc(-c2ccnc(NC(=O)C3CC3)c2)nc1OCCF

IC50 [1]: 36.5 nM
SMILES: CNC(=O)c1sc(-c2ccnc(NC(=O)C3CC3)c2)nc1OCCOCCF

Drug uptake [2]: 0.31 % ID/g | Stability [3]: 90% | Drug uptake [4]: 4.5 % ID/g | Drug uptake [5]: 3.41 % ID/g | Drug uptake [6]: 9.74 % ID/g | Drug uptake [7]: 13.09 % ID/g | Drug uptake [8]: 0.42 % ID/g | Drug uptake [9]: 2.18 % ID/g | Drug uptake [10]: 7.32 % ID/g | Drug uptake [11]: 23.75 % ID/g | Drug uptake [12]: 5.64 % ID/g | Drug uptake [13]: 2.87 % ID/g | Drug uptake [14]: 15.27 % ID/g | Drug uptake [15]: 1.73 % ID/g | Drug uptake [16]: 32.93 % ID/g | Drug uptake [17]: 1.68 % ID/g | logD [18]: 2.24 | Drug uptake [19]: 2.05 % ID/g | Drug uptake [20]: 14.4 % ID/g | Drug uptake [21]: 24.4 % ID/g | Drug uptake [22]: 3.29 % ID/g | Drug uptake [23]: 11.16 % ID/g | Drug uptake [24]: 7.28 % ID/g | Drug uptake [25]: 2.83 % ID/g | Drug uptake [26]: 22.28 % ID/g | Drug uptake [27]: 7.11 % ID/g | Drug uptake [28]: 1.4 % ID/g | Drug uptake [29]: 2.91 % ID/g | Drug uptake [30]: 5.44 % ID/g | Drug uptake [31]: 5.07 % ID/g | remaining at 4 h [32]: > 95% | Drug uptake [33]: 0.77 % ID/g | Drug uptake [34]: 5.28 % ID/g | Drug uptake [35]: 1.76 % ID/g | Drug uptake [36]: 2.91 % ID/g | Drug uptake [37]: 2.18 % ID/g | Drug uptake [38]: 2.53 % ID/g | Drug uptake [39]: 1.11 % ID/g | Drug uptake [40]: 31.31 % ID/g | Drug uptake [41]: 3.05 % ID/g | Drug uptake [42]: 1.38 % ID/g | Drug uptake [43]: 4.48 % ID/g | Drug uptake [44]: 3.5 % ID/g | Drug uptake [45]: 3.45 % ID/g | Drug uptake [46]: 2.42 % ID/g | Drug uptake [47]: 0.87 % ID/g | Drug uptake [48]: 1.54 % ID/g | Drug uptake [49]: 2.92 % ID/g | Drug uptake [50]: 16.09 % ID/g | Drug uptake [51]: 1.88 % ID/g | Drug uptake [52]: 8.03 % ID/g
SMILES: CNC(=O)c1sc(-c2ccnc(NC(=O)C3CC3)c2)nc1OCC[18F]

IC50 [1]: 6 nM
SMILES: CNC(=O)c1sc(-c2ccnc(NC(=O)C3CC3)c2)nc1OCCF

More lines, now with the values behind:

SMILES: CN(C)C(=O)c1sc(-c2ccnc(NC(=O)C3CC3)c2)nc1OCCOCCF
IC50 [1]: 149 nM

SMILES: CCOC(=O)c1sc(-c2ccnc(NC(=O)C3CC3)c2)nc1OCCF
IC50 [1]: 68.1 nM

SMILES: O=C(Nc1cc(-c2nc(OCC3CC3)c(C(=O)N3CC(F)C3)s2)ccn1)C1CC1
IC50 [1]: 42.1 nM

SMILES: CCOC(=O)c1sc(-c2ccnc(NC(=O)C3CC3)c2)nc1OCCOCCF
IC50 [1]: 422 nM

SMILES: CCOC(=O)c1sc(-c2ccnc(NC(=O)C3CC3)c2)nc1OCCOCCOCCF
IC50 [1]: 345 nM

SMILES: CN(C)C(=O)c1sc(-c2ccnc(NC(=O)C3CC3)c2)nc1OCCOCCOCCF
IC50 [1]: 426 nM

SMILES: O=C(NCCF)c1sc(-c2ccnc(NC(=O)C3CC3)c2)nc1OCC1CC1
IC50 [1]: 18.2 nM

From ChEMBL document CHEMBL5257073, “Development of [18F]Thiazolylacylaminopyridine-Based Glycogen synthase Kinase-3β ligands for positron emission tomography imaging” (Bioorg Med Chem Lett, 2023)
